This is an account of results in PubChem BioAssay AID1159560 (GlaxoSmithKline (GSK), 2015).

Activity calls are given as the source filed them. No rule for the calls is given here.

For the test, the system named is Leishmania donovani growth inhibition. Kind of test: Leishmania donovani growth inhibition (AID 1159560).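 Also: parasites exposed to compound for 72 h before the viability read.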
On to `Cc1cc2nc(N3CC[C@H]3C(N)=O)nc(Nc3cc(C4CC4)[nH]n3)c2s1`, for which the IC50 is 0.79 µM.
The figure for `CC(C)c1cc(C(=O)N2CCCC(c3cc4ncccc4[nH]3)C2)on1` (stereo not given) is > 50 µM (inactive); for `COc1ccc(Nc2nc(NC3CCC(O)CC3)ncc2Br)c(C(N)=O)c1` (stereo not given) it is 3.2 µM; for `NCc1csc(Nc2cc(Oc3ccccc3)ncn2)n1` it is > 50 µM (inactive).
The figure for `Cc1ccccc1CNC(=O)CN(Cc1ccccn1)Cc1ccccn1` is 10 µM.
The value for `Cc1[nH]nc(C(F)(F)F)c1NC(=O)CCn1cc(Cl)c([N+](=O)[O-])n1` was > 50 µM (inactive); that for `O=[N+]([O-])c1ccc(-c2nnn(-c3ccc(Cl)cc3)n2)o1` was 6.3 µM.
In the case of `CCN(CC)S(=O)(=O)c1ccc(C)c(NC(=O)c2cc(Cl)c3c(c2)OCO3)c1`, the IC50 is > 50 µM (inactive).
The value for `Cn1cncc1CN1CCC2(CC1)COC(Cc1ccccc1)C2` (stereo not given) was 13 µM.
The figure for `Cc1c(CNC(=O)c2ccc(Cn3cc(Cl)c([N+](=O)[O-])n3)cc2)cnn1C` is > 50 µM (inactive).
On to `O=C(O)[C@H]1C[C@@H]1c1ccc(-c2ccc(CN(CCc3ccccn3)C(=O)C3CCC3)cc2)cc1`, for which the IC50 is 25 µM.
The figure for `CC(C)(C)Nc1nc(Nc2ccc3c(c2)CS(=O)(=O)C3)nc2[nH]ccc12` is 7.9 µM; for `Cc1c(C#N)c([N+](=O)[O-])nn1Cc1cccc(Cl)c1Cl` it is > 50 µM (inactive); for `CN(CC1CCCO1)S(=O)(=O)c1ccc(C(=O)Nc2nc(-c3ccccn3)cs2)cc1` (stereo not given) it is 1.3 µM.
The figure for `O=C(CN(Cc1ccccn1)Cc1ccccn1)NC1Cc2ccccc2C1` is 13 µM.
`Cn1c(CN2CCN(c3ncc(C(F)(F)F)cc3Cl)CC2)nc2ccncc21`: the IC50 is 5 µM.
The value for `CCOC(=O)c1cn[nH]c1S(=O)(=O)N1CCC1c1ccccc1` (stereo not given) was > 50 µM (inactive).
The value for `Cc1c([N+](=O)[O-])c(C(=O)Nc2sc3c(c2C#N)CCC(C)C3)nn1C` (stereo not given) was 25 µM; that for `COc1cc(-c2nc(N3CCOCC3)sc2-c2ccnc(NC3CCOCC3)n2)ccc1Cl` was > 50 µM (inactive); that for `COc1ncc(-c2ccc3nccc(-c4ccncc4)c3c2)cc1NS(C)(=O)=O` was 3.2 µM.
The value for `CC(C)COC(=O)Nc1ccc(N2CCC(CNS(=O)(=O)c3ccccc3)CC2)c(F)c1` was 4 µM; that for `O=C(c1ccccc1)N1CCC(C(=O)N2CCC(Oc3ccccc3Cl)CC2)CC1` was > 50 µM (inactive); that for `CCCCn1nnnc1CSc1nc(C)cc(C)c1C#N` was 1.3 µM.
Consider `COCCn1cnc2cc(NC(=O)C3CCCCC3)cc(C(=O)N3CCc4sccc4C3)c21`, for which the IC50 was > 50 µM (inactive).
The value for `COc1ccc(Nc2nc(-c3ccccn3)cs2)c(OC)c1` was 6.3 µM; that for `Cc1ccc(C)c(-n2nnnc2Sc2nc([N+](=O)[O-])nn2C)c1` was > 50 µM (inactive).
Consider `O=C(COc1nn(-c2ccccc2)c2ncccc12)NCc1ccccc1`, for which the IC50 was 0.4 µM.
Turning to `Cc1nc2c(-c3n[nH]c(-c4ccccc4N)n3)cccn2c1C`, the IC50 is 6.3 µM.
The value for `c1ccc2[nH]c(-c3ccc(N4CCCC4)nc3)nc2c1` was 5 µM.
Turning to `CCCN(Cc1ccc(OC)c(OC)c1)Cc1cc(=O)c2c(C)cc(C)cc2[nH]1`, the IC50 is 20 µM.
The figure for `COc1ccccc1C(=O)Nc1nnc(-c2ccc3c(c2)OCO3)s1` is 1 µM.
The figure for `Cc1cccc(NS(=O)(=O)c2cnc3sc(C)cn3c2=O)c1` is > 50 µM (inactive).
The value for `CC(C)n1c(-c2nonc2N)nc2cccc(OCCN3CCCC3)c21` was > 50 µM (inactive); that for `NC(=O)c1cc(F)ccc1Nc1nc(NC2CCC(O)CC2)ncc1Br` (stereo not given) was 1.6 µM; that for `Cn1nc(C(=O)N2CCc3ccccc32)c2c1CCS(=O)(=O)C2` was 4 µM.
With `C=CCn1nc([N+](=O)[O-])nc1Oc1ccc(Cl)cc1Cl`, the IC50 is > 50 µM (inactive).
The figure for `O=S(=O)(c1ccccc1C(F)(F)F)N1CCN(Cc2ccc(-n3ccnc3)cc2)CC1` is 6.3 µM; for `CC(CNS(=O)(=O)c1ccc(OC(F)F)cc1)c1ccc(NC(=O)c2ccncc2)cc1` (stereo not given) it is > 50 µM (inactive); for `Cc1ncsc1CNc1cnc(-c2ccc3c(c2)OCCO3)c(-c2cnn(C)c2)c1` it is 25 µM.
The figure for `NC(=O)c1ncccc1Nc1nc(NC2CCC(O)CC2)ncc1Br` (stereo not given) is 1.3 µM; for `COc1ccc(NS(=O)(=O)c2ccc(S(=O)(=O)N(C)C3CCCCC3)cc2)c2ncccc12` it is > 50 µM (inactive).
For `O=S1N=C(NCCCN(Cc2ccc(F)cc2)c2ccccn2)C(NCc2ccncc2)=N1` (stereo not given), the IC50 is > 50 µM (inactive).
The value for `Fc1ccc(OC2CC(NCc3cccc4cn[nH]c34)C2)cc1C(F)(F)F` (stereo not given) was 20 µM; that for `Cc1cc(=O)n2nc(Oc3ccc(C#N)cc3Cl)sc2n1` was 13 µM.
The figure for `CC(C)c1nn(-c2nc(N)nc(-c3ccccn3)n2)c(N)c1C1CCCCC1` is 7.9 µM; for `c1ccc(-c2nc(NC3CCCC3)c3ccccc3n2)nc1` it is 4 µM; for `O=c1ccc2ccc(F)c3c2n1C[C@H]3CN1CCC(NCc2cc3ccccc3o2)CC1` it is 16 µM.
The value for `Cc1occc1C(=O)Nc1ccccc1C(=O)Nc1nccs1` was > 50 µM (inactive); that for `CS(=O)(=O)c1cccc(CNC(=O)c2cncc(N3CCN(c4ccc(F)cc4)CC3)c2)c1` was > 50 µM (inactive); that for `Cc1ccc(Nc2nc(C3CCCN3Cc3ccn[nH]3)cs2)nc1` (stereo not given) was 13 µM.
Take `Cn1nccc1NC(=O)Cn1ccc(-c2ccncc2)n1`: the IC50 was > 50 µM (inactive).
The value for `CC(=O)Nc1ccc(-c2csc(NC(=O)c3ccc([N+](=O)[O-])s3)n2)cc1` was 0.4 µM; that for `Cc1ccc(NC(=O)C(C)n2nc([N+](=O)[O-])c(Br)c2C)cc1Cl` (stereo not given) was > 50 µM (inactive).
In the case of `O=c1[nH]c(C=Cc2cccc(OCCOc3ccccc3)c2)nc(O)c1[N+](=O)[O-]`, the IC50 is > 50 µM (inactive).
The value for `CNc1cc(C)nc(C2CN(C(=O)c3n[nH]c4ccccc34)CCO2)c1` (stereo not given) was > 50 µM (inactive); that for `COc1cc(OC)cc(C(NS(=O)(=O)c2ccc(Cl)c(C(F)(F)F)c2)c2nccn2C)c1` (stereo not given) was 10 µM.
The value for `COc1cc(-c2noc(CC#N)n2)ccc1OC(F)F` was > 50 µM (inactive); that for `Cc1ccc(S(C)(=O)=O)cc1Nc1nccc(-c2sc(N)nc2-c2ccccc2)n1` was 3.2 µM; that for `Cc1nc(-c2nc(NCc3ccc(Cl)cc3)c3cccnc3c2O)n[nH]1` was 2 µM.
The value for `CC1(Oc2cncc(Cl)c2)CCN(Cc2cc3ccccc3[nH]2)C1` (stereo not given) was > 50 µM (inactive); that for `COc1ccc(-c2csc(NC(=O)c3ccc([N+](=O)[O-])s3)n2)cc1OC` was 1 µM; that for `Cc1[nH]nc(-c2nc3ccccc3[nH]2)c1C(=O)NC1CCCNC1` (stereo not given) was 10 µM.
For the compound `CCN(CC)S(=O)(=O)c1ccc(OC)c(NC(=O)c2ccc([N+](=O)[O-])s2)c1`, the IC50 was > 50 µM (inactive).
The value for `O=C1CN(C(=O)c2cccc(Nc3ncc(-c4ccc5c(c4)OCO5)cn3)c2)CCN1` was 1.6 µM; that for `CN(Cc1cc2ccccc2s1)c1ncc2c(N)nc(N)nc2n1` was 32 µM.
Consider `CCN(CC)c1nc(Nc2ccncc2)nc2ccccc12`, for which the IC50 was 0.79 µM.
The figure for `Cc1cc(N2CCc3ccccc3C2)nc(Nc2ccc(S(=O)(=O)N3CCOCC3)cc2)n1` is 3.2 µM; for `OC1CCC(Nc2nccc(-c3sc(C4CCOCC4)nc3-c3ccc(F)c(F)c3)n2)CC1` (stereo not given) it is 3.2 µM; for `COc1ccccc1C1CC(c2ccc(NS(C)(=O)=O)cc2)=NN1C(=O)c1cccs1` (stereo not given) it is 4 µM.
For `O=C(Nc1ccc(Br)c(Cl)c1)Nc1ccc2c(c1)OCO2`, the IC50 is > 50 µM (inactive).
The value for `NC(N)=Nc1nc(-c2ccc(NC(N)=NCCN3CCCC3)cc2)cs1` was > 50 µM (inactive); that for `CN(C)S(=O)(=O)c1ccc(Cl)c(C(=O)Nc2nc(-c3ccccn3)cs2)c1` was 2 µM; that for `Cc1cc(NC(=O)c2ccc([N+](=O)[O-])s2)ccc1Br` was 3.2 µM.
The figure for `Cc1nn(-c2nc3ccccc3s2)c2c1C(c1ccc(OCC(N)=O)cc1)SCC(=O)N2` (stereo not given) is > 50 µM (inactive).
Consider `O=C(Nc1cccc(S(=O)(=O)Nc2ccc(Br)cc2)c1)c1ccc([N+](=O)[O-])s1`, for which the IC50 is 0.79 µM.
With `CCOc1ccc(OCC(=O)N2c3ccccc3CC2C(=O)NC)cc1` (stereo not given), the IC50 was > 50 µM (inactive).
The value for `N#Cc1cccc(CN2CCC(N(Cc3cccnc3)C(=O)c3cc(F)c(F)cc3F)CC2)c1` was > 50 µM (inactive); that for `CCCCNc1nccc(-c2c(-c3ccc(F)cc3)nn3c(N4CCOCC4)cccc23)n1` was > 50 µM (inactive); that for `CC(Cn1ccnc1)NC(=O)C1CC1c1cccc(Cl)c1Cl` (stereo not given) was 16 µM.
The value for `CCOc1ccccc1C(=O)Nc1nnc(-c2ccc3c(c2)OCO3)s1` was 0.79 µM; that for `CC(=O)Nc1nc(-c2cc(C)ccc2C)c(C)s1` was > 50 µM (inactive); that for `O=c1cc(NCCCNC2CCOc3c(I)cc(Cl)cc32)[nH]c2ccccc12` (stereo not given) was 32 µM.
The value for `C=CCN(Cc1cccs1)C(=O)CSc1nnc(-c2ccc3c(c2)OCO3)o1` was 6.3 µM.
Consider `CC(C(=O)Nc1ccc(Br)cc1)N1CCN(c2ccc([N+](=O)[O-])cc2)CC1` (stereo not given), for which the IC50 is > 50 µM (inactive).
On to `CC1CN(S(=O)(=O)c2ccc(NC(=O)c3cc(C4CC4)nc4c3cnn4C(C)C)cc2)CC(C)O1` (stereo not given), for which the IC50 is 20 µM.
Regarding `O=C(NCCNc1noc(-c2ccc([N+](=O)[O-])cc2)n1)c1ccc(Cl)cc1`, the IC50 was > 50 µM (inactive).
On to `O=S(=O)(NCC(c1cccnc1)N1CCN(c2ccc(F)cc2)CC1)c1cccs1` (stereo not given), for which the IC50 is > 50 µM (inactive).
The value for `CCN(CC)S(=O)(=O)c1ccc(Cn2nc(C(=O)Nc3ccncn3)c3ccccc32)cc1` was > 50 µM (inactive); that for `COc1ncc(-c2ccc3ncnc(N4CCOCC4)c3c2)cc1NS(C)(=O)=O` was 3.2 µM.
The value for `COc1ccc(C(=O)Nc2c(C)nn(COc3cccc(C(F)(F)F)c3)c2C)cc1` was > 50 µM (inactive).
